Patent publication EP0503044B1, “PEPTIDE COMPOUNDS OF LAEVOROTATORY AMINO ACIDS AND RING MOLECULES, AND THERAPEUTICAL APPLICATIONS THEREOF” (POLIFARMA S.p.A., priority 1990, dated 1992)
Square brackets hold non-standard residues; d marks the D form. Peptide text beside a SMILES is read from it. * marks the point of attachment. Trp(1-Me) = Cn1cc(C[C@H](N)C(=O)O)c2ccccc21; Hyp = O=C(O)[CH]1C[CH](O)CN1; Phg = N[CH](C(=O)O)c1ccccc1; pGlu = O=C1CC[CH](C(=O)O)N1; Pip = O=C(O)[C@@H]1CCCCN1; ΔPro = O=C(O)[CH]1C=CCN1; Cbz = O=C(OCc1ccccc1)*; Aze = O=C(O)[CH]1CCN1; Boc = CC(C)(C)OC(=O)*

Key:
[1] = tested on: human lymphocites in culture; experiment: Stimulation of growth of human lymphocytes in culture after addition of specific antigens (immuno-modulating activity); format: cell-based
Text: (§1) In the following examples will first of all be given the data necessary for synthesis of the compounds according to the present invention. There will then be given data regarding their pharmacological activity, using methods widely known to be valid. In particular, for the pressure tests, spontaneously hyper-tensive rats were used (SHR from the company Charles River), operated in such a way as to enable pressure to be read even when the animals were awake and free to move. In order to evaluate the analgesic activity, the Hot Plate and Writhing Tests were used. For the anti-inflammatory effect the test of carraginine edema was used. Finally, for immuno-modulating activity the evaluation of the stimulation of growth of human lymphocites in culture was resorted to, after the addition of specific antigens. The results obtained for each synthesized compound are given at the end of each example.

[2] = tested on: spontaneously hyper-tensive rats (SHR from the company Charles River); experiment: Pressure test in awake spontaneously hypertensive rats (anti-hypertensive activity); format: in vivo
Text: as §1, with “antigens.” for “antigens. The results obtained for each synthesized compound are given at the end of each example.”

carraginine edema = experiment: Carrageenin edema test (anti-inflammatory effect); format: in vivo; conditions: dose not stated
Text: as §1, with “antigens.” for “antigens. The results obtained for each synthesized compound are given at the end of each example.”

[3] = Hot Plate test (analgesic activity); format: in vivo
Text: as §1

[4] = Analgesic activity, test not given (Hot Plate and Writhing Tests used); format: in vivo; conditions: test and dose not stated
Text: as §1, with “antigens.” for “antigens. The results obtained for each synthesized compound are given at the end of each example.”

[5] = Writhing test (analgesic activity); format: in vivo; conditions: dose not stated
Text: as §1

Compound	immune response [1]	anti-inflammatory effect (carraginine edema)	anti-hypertensive effect ([2]; dose not stated)	further results
COC(=O)[C@H](Cc1c[nH]c2ccccc12)NC(=O)[C@H](CC(C)C)NC(=O)[C@@H]1CCCCN1C(=O)OCc1ccccc1 [compound 15, Z-(L)-Pip-(L)-Leu-(L)-TrpOMe] (Cbz-[Pip]-Leu-Trp-OMe)	slight increase	consistent		anti-hypertensive effect ([2]; 2 mg/Kg i.v.): good; reduction in pressure ([2]; 2 mg/Kg i.v.): up to 30%
(L)-Pyr-Gly-(L)-CypOMe [compound 24]		moderate	bland	
COC(=O)C(Cc1c[nH]c2ccccc12)NC(=O)C(CC(C)C)NC(=O)C1C=CCN1C(=O)OC(C)(C)C (stereo not drawn) [compound 13, Boc-\/^3,4-(L)-Pro-(L)-Leu-(L)-TrpOMe] (Boc-[ΔPro]-Leu-Trp-OMe; configuration not given here)	slightly increases		slightly anti-hypertensive	
Z-(L)-Pyr-(L)-Leu-(S)-CypOMe [compound 21]	good		slight	
Z-(L)-Pro-(L)-Ala-(L)-OmtOMe [compound 4]	slightly increased			anti-hypertensive effect ([2]; 8 mg/Kg i.v.): bland
Z-(L)-Pro-(L)-Ala-TrpH [compound 2]	increased, but to a lesser extent than in the previous compound		comparable to that of compound 1	
Z-(L)-Pro-(L)-Ala-(L)-CypOMe [compound 11]		moderate	slight	
Z-(L)-Pro-(L)-Ala-CytH [compound 3]				anti-hypertensive effect ([2]; 8 mg/Kg i.p.): bland
Z-(L)-Pro-(L)-Ala-(S)-CytOEt [compound 1]				pain killing effect under the Hot Plate test ([3]; 4 mg/Kg i.p.): slight; response of lymphocytes stimulated by phytohemoagglutinine (PHA) ([1]; PHA stimulation): increases; anti-hypertensive effect ([2]; 4 mg/Kg i.p.): good; duration of the anti-hypertensive effect ([2]; 4 mg/Kg i.p.): maintained for a number of hours; pressure values reduced ([2]; 4 mg/Kg i.p.): 15-20%
(L)-Pyr-Gly-(L)-Pme [compound 23]	good			anti-hypertensive effect ([2]; 8 mg/Kg i.p.): good; analgesic effect [4]: excellent; reduction of contorsions during the Writhing test [5]: 80%
COC(=O)[C@@H](NC(=O)[C@H](C)NC(=O)[C@@H]1CCCN1C(=O)OCc1ccccc1)c1ccccc1 [compound 5, Z-(L)-Pro(L)-Ala-(L)-PhgOMe] (Cbz-Pro-Ala-[Phg]-OMe)				analgesic effect using the Hot Plate test ([3]; dose not stated): moderate; anti-hypertensive effect ([2]; 8 mg/Kg i.p.): bland
COC(=O)C(NC(=O)CNC(=O)C1CCC(=O)N1)c1ccccc1 (stereo not drawn) [compound 22, (L)-Pyr-Gly-(L)-PhgOMe] ([pGlu]-Gly-[Phg]-OMe; configuration not given here)	increase	very good		anti-hypertensive effect ([2]; 4 mg/Kg i.p.): excellent; pressure values reduced ([2]; 4 mg/Kg i.p.): 20%; reduction of edema (carraginine edema): 70%
Z-(L)-Pyr-(L)-Leu-(L)-TrpOMe [compound 19]		fair	slight	
COC(=O)C(Cc1c[nH]c2ccccc12)NC(=O)C(CC(C)C)NC(=O)C1CC(O)CN1C(=O)OCc1ccccc1 (stereo not drawn) [compound 16, Z-(L)-Hyp-(L)-Leu-(L)-TrpOMe] (Cbz-[Hyp]-Leu-Trp-OMe; configuration not given here)			bland	analgesic effect [4]: modest
COC(=O)C(Cc1c[nH]c2ccccc12)NC(=O)C(CC(C)C)NC(=O)C1CCCN1C.Cl (stereo not shown) [compound 10, N-Me-(L)-Pro-(L)-Leu-(L)-TrpOMe.HCl]	slightly increased			anti-hypertensive effect ([2]; 2 mg/Kg i.v.): excellent; reduction in pressure ([2]; 2 mg/Kg i.v.): 15-20%; analgesic effect [4]: low
Z-(L)-Pro-(L)-Ala-(L)-Pme [compound 6]	more consistent	rather weak		extension of time in the Hot Plate test ([3]; dose not stated): 25%; anti-hypertensive effect ([2]; 2 mg/Kg i.v.): good; pressure reduced ([2]; 2 mg/Kg i.v., after one hour): approximately 25%; analgesic effect [4]: good; reduction of contorsions during the Writhing test [5]: 70%
Z-(S)-Dhi-(L)-Leu-(L)-TrpOMe [compound 14]			bland reduction	analgesic effect [4]: moderate
COC(=O)[C@H](Cc1c[nH]c2ccccc12)NC(=O)[C@H](CC(C)C)NC(=O)c1ccc[nH]1 [compound 9, 2-Pyrrolyl-(L)-Leu-(L)-TrpOMe]		bland reduction	slight	
Boc-(L)-Mep-(L)-Leu-(L)-TrpOMe [compound 12]		reduction of the inflammatory response	bland	
COC(=O)[C@H](Cc1cn(C)c2ccccc12)NC(=O)[C@H](C)NC(=O)[C@@H]1CCCN1C(=O)OCc1ccccc1 [compound 7, Z-(L)-Pro-(L)-Ala-(1)-Me-(L)-TrpOMe] (Cbz-Pro-Ala-[Trp(1-Me)]-OMe)				anti-hypertensive effect ([2]; 2 mg/Kg i.v.): good; reduction in pressure ([2]; 2 mg/Kg i.v.): 10%
(L)-Pyr-(L)-Leu-(S)-CytOMe [compound 25]			bland	analgesic effect [4]: weak
COC(=O)C(Cc1c[nH]c2ccccc12)NC(=O)C(CC(C)C)NC(=O)C1CCN1C(=O)OCc1ccccc1 [compound 17, z-(S)-Aze-(L)-Leu-(L)-TrpOMe] (Cbz-[Aze]-Leu-Trp-OMe; configuration not given here)		bland	slight	
(S)-Tfc-(L)-Leu-(L)-TrpOMe [compound 18]	moderate		bland	
COC(=O)[C@H](Cc1c[nH]c2ccccc12)NC(=O)[C@H](CC(C)C)NC(=O)c1ccco1 [compound 8, 2-Fur-(L)-Leu-(L)-TrpOMe]	strongly stimulated even with small doses of peptide	slight		anti-hypertensive effect ([2]; 4 mg/Kg i.v.): slight
Z-(L)-Pyr-(L)-Leu-(S)-CytOMe [compound 20]		fair	bland	
